In general, EC50 refers to the concentration at which the effect is half-maximal.

The record followed here is patent US11845752B2, “Substituted imidazo[1,5-a]pyrazines for the treatment of hepatitis B” (ALIGOS THERAPEUTICS, INC., priority 2020, dated 2023).

Like-named read-outs stand apart in the source and are kept apart here.

This experiment concerns HBV. The experiment in a line: HBV-DNA antiviral assay using HepG2.117 cells (intracellular HBV DNA by qPCR). The class given is cell-based, HBV genotype D. The settings on record: HBV DNA inhibition, 3 days incubation, read-out: EC50. An outline of the steps:
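HepG2.117 cells (stably integrated genotype D HBV, Tet-off) seeded without doxycycline to induce pgRNA, then treated next day with 9 concentrations (4-fold dilutions, 2% DMSO) for 3 days at 37 °C. Intracellular HBV DNA quantified by qPCR against standard curve, viability by ATP content; inhibition relative to DMSO control, EC50/EC90/CC50 by non-linear regression.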
Background: Quantitative PCR measures a nucleic acid by following its amplification.

Setting [1] is: Hepatitis B virus, HepG2.117, 72 h.

In the case of `Cc1nc2cc(-n3c(C(=O)NCc4ccccc4-c4ccncn4)c4n(c3=O)CC(C)N(C(=O)c3ccc(Br)c(Cl)c3)C4)ccc2o1` (single isomer, unassigned) [Compound 46b], the EC50 was below 50 nM.
With `Cc1nnc(-c2ccccc2CNC(=O)c2c3n(c(=O)n2-c2ccc(OC4CC4)cc2)CC(C)N(C(=O)c2ccc(Br)c(C(F)(F)F)c2)C3)o1` (single isomer, unassigned) [Compound 47a], the EC50 under setting [1] is below 50 nM.
Same read-out and setting: the figure for `Cc1nc2cc(-n3c(C(=O)NCc4ccccc4-c4ccncn4)c4n(c3=O)CC(C)N(C(=O)c3ccc(Br)c(C(F)(F)F)c3)C4)ccc2o1` (single isomer, unassigned) [Compound 48a] is 50 to 500 nM.
Consider `Cc1nc2cc(-n3c(C(=O)NCc4ccccc4-c4ccncn4)c4n(c3=O)CC(C)N(C(=O)c3ccc(Br)c(C(F)(F)F)c3)C4)ccc2o1` (single isomer, unassigned) [Compound 48b], for which the 50% effective concentration (EC50) was below 50 nM.
In the case of `CC1Cn2c(c(C(=O)NCc3c(F)cccc3-c3cccnn3)n(-c3ccc(OC4CC4)cc3)c2=O)CN1C(=O)c1ccc(Br)c(Cl)c1` (single isomer, unassigned) [Compound 49a], the EC50 under setting [1] is 50 to 500 nM.
For the molecule `CC1Cn2c(c(C(=O)NCc3c(F)cccc3-c3cccnn3)n(-c3ccc(OC4CC4)cc3)c2=O)CN1C(=O)c1ccc(Br)c(Cl)c1` (single isomer, unassigned) [Compound 49b], the EC50 fell in the range of 50 to 500 nM.
Regarding `CC1Cn2c(c(C(=O)NCc3c(F)cccc3-c3cccnn3)n(-c3ccc(OC4CC4)cc3)c2=O)CN1C(=O)c1ccc(Br)c(C(F)(F)F)c1` (single isomer, unassigned) [Compound 50a], under setting [1], the EC50 is 50 to 500 nM.
As to `CC1Cn2c(c(C(=O)NCc3c(F)cccc3-c3cccnn3)n(-c3ccc(OC4CC4)cc3)c2=O)CN1C(=O)c1ccc(Br)c(C(F)(F)F)c1` (single isomer, unassigned) [Compound 50b], the EC50 is below 50 nM.
Turning to `CC1Cn2c(c(C(=O)NCc3ccccc3-c3cc[nH]n3)n(-c3ccc(OC4CC4)cc3)c2=O)CN1C(=O)c1ccc(Br)c(Cl)c1` (single isomer, unassigned) [Compound 51a], under setting [1], the EC50 lay within 50 to 500 nM.
As for `CC1Cn2c(c(C(=O)NCc3ccccc3-c3cc[nH]n3)n(-c3ccc(OC4CC4)cc3)c2=O)CN1C(=O)c1ccc(Br)c(Cl)c1` (single isomer, unassigned) [Compound 51b], the EC50 is below 50 nM.
Turning to `Cc1nnc(-c2ccccc2CNC(=O)c2c3n(c(=O)n2-c2ccc4oc(C)nc4c2)CC(C)N(C(=O)c2ccc(Br)c(Cl)c2)C3)o1` (single isomer, unassigned) [Compound 53a], the EC50 under setting [1] was in the range of 50 to 500 nM.
Take `Cc1nnc(-c2ccccc2CNC(=O)c2c3n(c(=O)n2-c2ccc4oc(C)nc4c2)CC(C)N(C(=O)c2ccc(Br)c(Cl)c2)C3)o1` (single isomer, unassigned) [Compound 53b]: the EC50 lay in the range of 50 to 500 nM.
Take `Cc1nnc(-c2ccccc2CNC(=O)c2c3n(c(=O)n2-c2ccc4oc(C)nc4c2)CC(C)N(C(=O)c2ccc(Br)c(C(F)(F)F)c2)C3)o1` (single isomer, unassigned) [Compound 54a]: under setting [1], the EC50 is below 50 nM.
For `Cc1nnc(-c2ccccc2CNC(=O)c2c3n(c(=O)n2-c2ccc4oc(C)nc4c2)CC(C)N(C(=O)c2ccc(Br)c(C(F)(F)F)c2)C3)o1` (single isomer, unassigned) [Compound 54b], the EC50 fell in the range of 50 to 500 nM.
Consider `CC1Cn2c(c(C(=O)NCc3ccccc3-c3cccnn3)n(-c3ccc(OC[C@@H](C)O)cc3)c2=O)CN1C(=O)c1ccc(Br)c(C(F)(F)F)c1` (single isomer, unassigned) [Compound 56a], for which the EC50 lay in the range of 500 to 5000 nM.
For the molecule `CC1Cn2c(c(C(=O)NCc3ccccc3-c3cccnn3)n(-c3ccc(OC[C@@H](C)O)cc3)c2=O)CN1C(=O)c1ccc(Br)c(C(F)(F)F)c1` (single isomer, unassigned) [Compound 56b], the EC50 lay within 50 to 500 nM.
`CC1Cn2c(c(C(=O)NCc3ccccc3-c3cccnn3)n(-c3ccc(OC[C@H](C)O)cc3)c2=O)CN1C(=O)c1ccc(Br)c(C(F)(F)F)c1` (single isomer, unassigned) [Compound 57a]: under setting [1], the EC50 is 50 to 500 nM.
`CC1Cn2c(c(C(=O)NCc3ccccc3-c3ncccn3)n(-c3ccc(OC4CC4)cc3)c2=O)CN1C(=O)c1ccc(Br)c(C(F)(F)F)c1` (single isomer, unassigned) [Compound 59a]: the EC50 under setting [1] is below 50 nM.
`CC1Cn2c(c(C(=O)NCc3ccccc3-c3ncccn3)n(-c3ccc(OC4CC4)cc3)c2=O)CN1C(=O)c1ccc(Br)c(C(F)(F)F)c1` (single isomer, unassigned) [Compound 59b]: the half-maximal effective concentration (EC50) is below 50 nM.
For the molecule `CC1Cn2c(c(C(=O)NCc3ccccc3-c3ccccn3)n(-c3ccc(OC[C@@H](C)O)cc3)c2=O)CN1C(=O)c1ccc(Br)c(C(F)(F)F)c1` (single isomer, unassigned) [Compound 60a], the EC50 under setting [1] was 50 to 500 nM.
The same measure, in the same setting: the figure for `CC1Cn2c(c(C(=O)NCc3ccccc3-c3ccncn3)n(-c3ccc(OC[C@@H](O)C(F)(F)F)cc3)c2=O)CN1C(=O)c1ccc(Br)c(C(F)(F)F)c1` (single isomer, unassigned) [Compound 62a] is below 50 nM; for `CC1Cn2c(c(C(=O)NCc3ccccc3-c3ncccn3)n(-c3ccc(OC[C@@H](C)O)cc3)c2=O)CN1C(=O)c1ccc(Br)c(C(F)(F)F)c1` (single isomer, unassigned) [Compound 64a] it is below 50 nM; for `CC1Cn2c(c(C(=O)NCc3ccccc3-c3ncccn3)n(-c3ccc(OC[C@H](C)O)cc3)c2=O)CN1C(=O)c1ccc(Br)c(C(F)(F)F)c1` (single isomer, unassigned) [Compound 65a] it is below 50 nM.
Same read-out and setting: the figure for `CC1Cn2c(c(C(=O)NCc3ccccc3-c3ccccn3)n(-c3ccc(OC[C@@H](O)C(F)(F)F)cc3)c2=O)CN1C(=O)c1ccc(Br)c(C(F)(F)F)c1` (single isomer, unassigned) [Compound 68a] is below 50 nM; for `CC1Cn2c(c(C(=O)NCc3ccccc3-c3ccccn3)n(-c3ccc(OC[C@H](O)C(F)(F)F)cc3)c2=O)CN1C(=O)c1ccc(Br)c(C(F)(F)F)c1` (single isomer, unassigned) [Compound 69a] it is below 50 nM.
On the same count and under the same terms, the figure for `CCC(=O)COc1ccc(-n2c(C(=O)NCc3ccccc3-c3ncccn3)c3n(c2=O)CC(C)N(C(=O)c2ccc(Br)c(C(F)(F)F)c2)C3)cc1` (single isomer, unassigned) [Compound 70a] is 50 to 500 nM.
For `CCC(=O)COc1ccc(-n2c(C(=O)NCc3ccccc3-c3ncccn3)c3n(c2=O)CC(C)N(C(=O)c2ccc(Br)c(C(F)(F)F)c2)C3)cc1` (single isomer, unassigned) [Compound 70b], the EC50 was below 50 nM.
The same measure, in the same setting: the figure for `CC1Cn2c(c(C(=O)NCc3ccccc3-c3ccncn3)n(-c3ccc(N4CC5(CN(C)C5)C4)cc3)c2=O)CN1C(=O)c1ccc(Br)c(C(F)(F)F)c1` (single isomer, unassigned) [Compound 73a, (6R*)-7-[4-bromo-3-(trifluoromethyl)benzoyl]-6-methyl-2-(4-{6-methyl-2,6-diazaspiro[3.3]heptan-2-yl}phenyl)-3-oxo-N-{[2-(pyrimidin-4-yl)phenyl]methyl}-5H,6H,8H-imidazo[1,5-a]pyrazine-1-carboxamide] is 500 to 5000 nM.
As to `CC1Cn2c(c(C(=O)NCc3ccccc3-c3ccncn3)n(-c3ccc(N4CC5(CN(C)C5)C4)cc3)c2=O)CN1C(=O)c1ccc(Br)c(C(F)(F)F)c1` (single isomer, unassigned) [Compound 73b, (6S*)-7-[4-bromo-3-(trifluoromethyl)benzoyl]-6-methyl-2-(4-{6-methyl-2,6-diazaspiro[3.3]heptan-2-yl}phenyl)-3-oxo-N-{[2-(pyrimidin-4-yl)phenyl]methyl}-5H,6H,8H-imidazo[1,5-a]pyrazine-1-carboxamide], the EC50 was 50 to 500 nM.
For `CC1Cn2c(c(C(=O)NCc3ccccc3-c3ccncn3)n(-c3ccc(OCC4(O)CC4)cc3)c2=O)CN1C(=O)c1ccc(Br)c(C(F)(F)F)c1` (single isomer, unassigned) [Compound 74b], the EC50 under setting [1] was below 50 nM.
Take `CC1Cn2c(c(C(=O)NCc3ccccc3-c3cccnn3)n(-c3ccc(N4CC5(CN(C)C5)C4)cc3)c2=O)CN1C(=O)c1ccc(Br)c(C(F)(F)F)c1` (single isomer, unassigned) [Compound 76a]: under setting [1], the half-maximal effective concentration (EC50) fell in the range of 500 to 5000 nM.
As for `CC1Cn2c(c(C(=O)NCc3ccccc3-c3cccnn3)n(-c3ccc(N4CC5(CN(C)C5)C4)cc3)c2=O)CN1C(=O)c1ccc(Br)c(C(F)(F)F)c1` (single isomer, unassigned) [Compound 76b], the EC50 was in the range of 500 to 5000 nM.
Take `CC1Cn2c(c(C(=O)NCc3ccccc3-c3ccccn3)n(-c3ccc(N4CC5(CN(C)C5)C4)cc3)c2=O)CN1C(=O)c1ccc(Br)c(C(F)(F)F)c1` (single isomer, unassigned) [Compound 77a]: the EC50 under setting [1] is below 50 nM.
As to `CC1Cn2c(c(C(=O)NCc3ccccc3-c3ccccn3)n(-c3ccc(N4CC5(CN(C)C5)C4)cc3)c2=O)CN1C(=O)c1ccc(Br)c(C(F)(F)F)c1` (single isomer, unassigned) [Compound 77b], the EC50 was 50 to 500 nM.
Take `CC1Cn2c(c(C(=O)NCc3ccccc3-c3ncccn3)n(-c3ccc(N4CC5(CN(C)C5)C4)cc3)c2=O)CN1C(=O)c1ccc(Br)c(C(F)(F)F)c1` (single isomer, unassigned) [Compound 78a]: the EC50 under setting [1] was below 50 nM.
The same measure, in the same setting: the result for `CC1Cn2c(c(C(=O)NCc3ccccc3-c3ccncn3)n(-c3ccc4nn(CC(F)(F)F)cc4c3)c2=O)CN1C(=O)c1ccc(Br)c(C(F)(F)F)c1` (single isomer, unassigned) [Compound 79a] reads 50 to 500 nM.
For `CC1Cn2c(c(C(=O)NCc3ccccc3-c3ccncn3)n(-c3ccc4nn(CC(F)(F)F)cc4c3)c2=O)CN1C(=O)c1ccc(Br)c(C(F)(F)F)c1` (single isomer, unassigned) [Compound 79b], the EC50 was below 50 nM.
Consider `CC1Cn2c(c(C(=O)NCc3ccccc3-c3ccncn3)n(-c3ccc(N4CCC5(CC4)CN(C)C5)cc3)c2=O)CN1C(=O)c1ccc(Br)c(C(F)(F)F)c1` (single isomer, unassigned) [Compound 80a], for which, under setting [1], the EC50 lay within 50 to 500 nM.
